Experimental data taken from ChEMBL document CHEMBL1201862, “PubChem BioAssay data set” (2004).
Calls of active or inactive are those of the source.

How the values were obtained:
[1] = target: T1, DNA repair protein RAD52 homolog (Homo sapiens, UniProt P43351); format: functional, biochemical
T1 sequence (P43351 whole entry): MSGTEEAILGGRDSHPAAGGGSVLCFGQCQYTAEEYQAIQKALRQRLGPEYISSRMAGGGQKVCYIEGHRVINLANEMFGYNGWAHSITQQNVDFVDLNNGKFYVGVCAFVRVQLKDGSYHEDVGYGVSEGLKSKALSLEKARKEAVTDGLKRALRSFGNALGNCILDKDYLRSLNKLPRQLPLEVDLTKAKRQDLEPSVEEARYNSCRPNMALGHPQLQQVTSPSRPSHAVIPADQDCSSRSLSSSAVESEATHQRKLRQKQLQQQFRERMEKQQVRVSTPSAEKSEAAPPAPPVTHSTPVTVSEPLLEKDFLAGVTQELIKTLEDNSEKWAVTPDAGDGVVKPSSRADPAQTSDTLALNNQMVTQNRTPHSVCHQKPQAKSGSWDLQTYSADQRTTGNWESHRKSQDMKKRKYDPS

P388 = assay: cells; format: functional; details: Mus musculus
[2] = Fluorescence-based cell-based high throughput dose response assay for inhibitors of the interaction of nucleotide-binding oligomerization domain containing 2 (NOD2) and the receptor-interacting serine-threonine kinase 2 (RIPK2).; format: functional; details: Homo sapiens
P388/ADR = assay: cells; format: functional; details: Mus musculus
SN12K1 = assay: cells; format: functional; details: Homo sapiens
[3] = target: T2, Long-chain-fatty-acid--AMP ligase FadD28 (Mycobacterium tuberculosis, UniProt P9WQ59); assay: Fluorescence polarization aasay to screen for inhibitors that compete for the binding of FadD28 to a bisubstrate Measured in Biochemical System Using Plate Reader - 2147-01_Inhibitor_Dose_CherryPick_Activity.; format: functional, Mycobacterium tuberculosis H37Rv
T2 sequence (P9WQ59 whole entry): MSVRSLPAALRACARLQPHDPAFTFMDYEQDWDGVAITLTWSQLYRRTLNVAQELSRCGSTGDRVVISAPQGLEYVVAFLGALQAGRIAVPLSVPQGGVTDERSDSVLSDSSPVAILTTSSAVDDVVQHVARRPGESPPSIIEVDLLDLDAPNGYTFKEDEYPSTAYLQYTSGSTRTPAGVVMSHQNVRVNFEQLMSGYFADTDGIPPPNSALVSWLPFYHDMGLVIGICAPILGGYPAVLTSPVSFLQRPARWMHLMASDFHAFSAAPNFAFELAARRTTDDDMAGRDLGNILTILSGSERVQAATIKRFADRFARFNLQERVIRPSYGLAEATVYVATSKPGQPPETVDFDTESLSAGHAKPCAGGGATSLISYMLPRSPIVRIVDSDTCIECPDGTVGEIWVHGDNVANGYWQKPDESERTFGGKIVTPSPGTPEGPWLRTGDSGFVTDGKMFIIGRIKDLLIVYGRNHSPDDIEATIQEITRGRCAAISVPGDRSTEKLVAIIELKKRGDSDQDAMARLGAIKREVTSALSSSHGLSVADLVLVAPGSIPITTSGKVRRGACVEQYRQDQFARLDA

[4] = target: T3, Adenosylmethionine-8-amino-7-oxononanoate aminotransferase (Mycobacterium tuberculosis, UniProt P9WQ81); assay: Mycobacterium tuberculosis BioA enzyme inhibitor Measured in Biochemical System Using Plate Reader - 2163-02_Inhibitor_Dose_CherryPick_Activity.; format: functional, Mycobacterium tuberculosis UT205
T3 sequence (P9WQ81 whole entry): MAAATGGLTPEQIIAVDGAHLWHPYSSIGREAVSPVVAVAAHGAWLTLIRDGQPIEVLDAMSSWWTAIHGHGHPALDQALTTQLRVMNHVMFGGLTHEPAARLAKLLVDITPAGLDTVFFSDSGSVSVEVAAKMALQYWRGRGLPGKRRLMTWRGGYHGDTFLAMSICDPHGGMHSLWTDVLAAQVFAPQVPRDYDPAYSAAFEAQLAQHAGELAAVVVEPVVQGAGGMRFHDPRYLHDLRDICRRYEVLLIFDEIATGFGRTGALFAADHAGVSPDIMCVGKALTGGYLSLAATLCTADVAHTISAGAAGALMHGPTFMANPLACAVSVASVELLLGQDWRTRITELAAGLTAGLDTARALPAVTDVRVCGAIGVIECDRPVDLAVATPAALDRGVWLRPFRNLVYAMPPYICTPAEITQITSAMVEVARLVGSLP

Insulin-degrading enzyme [5] = target: T4, Insulin-degrading enzyme (Homo sapiens, UniProt P14735); assay: activators of recombinant IDE enzyme, dose response, counter-screen for IDE activator project, biochemical, fluorescence polarization (AID 588681)
T4 sequence (P14735 whole entry): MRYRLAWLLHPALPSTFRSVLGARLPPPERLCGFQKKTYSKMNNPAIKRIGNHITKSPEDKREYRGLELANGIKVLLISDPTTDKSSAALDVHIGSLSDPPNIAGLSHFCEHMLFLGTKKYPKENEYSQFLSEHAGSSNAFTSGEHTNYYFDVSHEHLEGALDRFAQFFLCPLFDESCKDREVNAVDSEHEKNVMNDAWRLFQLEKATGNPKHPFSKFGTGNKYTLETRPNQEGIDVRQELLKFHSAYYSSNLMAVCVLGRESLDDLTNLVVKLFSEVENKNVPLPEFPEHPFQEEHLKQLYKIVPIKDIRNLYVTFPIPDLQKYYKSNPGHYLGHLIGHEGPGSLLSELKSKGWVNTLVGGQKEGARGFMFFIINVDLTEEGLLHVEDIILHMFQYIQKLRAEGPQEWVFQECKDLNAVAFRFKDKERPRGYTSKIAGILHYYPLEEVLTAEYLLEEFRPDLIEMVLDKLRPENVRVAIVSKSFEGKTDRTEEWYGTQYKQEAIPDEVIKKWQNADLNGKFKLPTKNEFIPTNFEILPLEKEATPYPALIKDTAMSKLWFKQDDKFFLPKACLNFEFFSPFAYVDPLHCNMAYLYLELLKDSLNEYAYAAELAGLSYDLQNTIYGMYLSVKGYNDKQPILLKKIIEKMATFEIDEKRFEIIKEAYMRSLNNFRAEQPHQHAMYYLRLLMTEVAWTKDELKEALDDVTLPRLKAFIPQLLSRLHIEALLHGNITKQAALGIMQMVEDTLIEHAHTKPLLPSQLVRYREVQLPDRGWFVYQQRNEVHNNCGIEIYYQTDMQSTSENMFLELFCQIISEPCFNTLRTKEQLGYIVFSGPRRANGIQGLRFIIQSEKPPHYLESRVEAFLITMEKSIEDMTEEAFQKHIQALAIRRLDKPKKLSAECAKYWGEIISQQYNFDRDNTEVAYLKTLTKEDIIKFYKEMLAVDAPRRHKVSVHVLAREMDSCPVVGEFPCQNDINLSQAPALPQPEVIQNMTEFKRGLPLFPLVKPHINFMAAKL

[6] = target: Intestinal-type alkaline phosphatase (Mus musculus, UniProt P24822); assay: PubChem AID 488785; format: functional
[7] = target: T5, Ubiquitin-conjugating enzyme E2 N (Homo sapiens, UniProt P61088); format: functional
T5 sequence (P61088 whole entry): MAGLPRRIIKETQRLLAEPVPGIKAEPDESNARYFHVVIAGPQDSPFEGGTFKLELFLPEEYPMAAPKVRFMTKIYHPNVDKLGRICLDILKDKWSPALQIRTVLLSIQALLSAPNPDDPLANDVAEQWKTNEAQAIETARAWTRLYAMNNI

Insulin-degrading enzyme [8] = target: T4, Insulin-degrading enzyme; assay: activators of endogenous IDE in HEK cells, dose response, cell-based, fluorescence polarization (AID 588439); format: functional
HEK293 [9] = assay: optical interference in Abeta FP readout, dose response, artefact control for IDE activator project, biochemical, fluorescence polarization (AID 588442); format: functional, cell-based; details: Homo sapiens
Bcl-2-related protein A1 = target: T6, Bcl-2-related protein A1 (Mus musculus, UniProt Q07440); format: functional;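 further: confirmatory dose–response counterscreen on Bfl-1, used to check hits from a UBC13 polyubiquitin inhibitor campaign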
T6 sequence (Q07440 whole entry): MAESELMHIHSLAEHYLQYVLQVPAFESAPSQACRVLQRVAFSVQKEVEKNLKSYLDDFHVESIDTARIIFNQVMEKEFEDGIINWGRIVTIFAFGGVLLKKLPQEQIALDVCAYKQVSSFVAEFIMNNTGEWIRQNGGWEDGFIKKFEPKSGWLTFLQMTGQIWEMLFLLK

HEK293 [10] = assay: HEK cell cytotoxicity by LDH release, dose response, cytotoxicity control for IDE activator project, fluorescence, HEK cells (AID 588440); format: functional, cell-based, Homo sapiens; details: Homo sapiens, HEK293;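 further: cytotoxicity by LDH release measuring loss of membrane integrity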
[11] = target: Intestinal-type alkaline phosphatase (Homo sapiens, UniProt P09923); assay: inhibition of human intestinal alkaline phosphatase – biochemical, dose response (AID 488876); format: functional
[12] = target: T5, Ubiquitin-conjugating enzyme E2 N; format: functional; remark: listed apart in the source
[13] = target: T7, Alkaline phosphatase, tissue-nonspecific isozyme (Homo sapiens, UniProt P05186); assay: TNAP enzyme inhibition by screening hits, dose response, selectivity assay for mouse IAP inhibitor project, biochemical, human TNAP, uHTS hits (AID 488906); format: functional
T7 sequence (P05186 whole entry): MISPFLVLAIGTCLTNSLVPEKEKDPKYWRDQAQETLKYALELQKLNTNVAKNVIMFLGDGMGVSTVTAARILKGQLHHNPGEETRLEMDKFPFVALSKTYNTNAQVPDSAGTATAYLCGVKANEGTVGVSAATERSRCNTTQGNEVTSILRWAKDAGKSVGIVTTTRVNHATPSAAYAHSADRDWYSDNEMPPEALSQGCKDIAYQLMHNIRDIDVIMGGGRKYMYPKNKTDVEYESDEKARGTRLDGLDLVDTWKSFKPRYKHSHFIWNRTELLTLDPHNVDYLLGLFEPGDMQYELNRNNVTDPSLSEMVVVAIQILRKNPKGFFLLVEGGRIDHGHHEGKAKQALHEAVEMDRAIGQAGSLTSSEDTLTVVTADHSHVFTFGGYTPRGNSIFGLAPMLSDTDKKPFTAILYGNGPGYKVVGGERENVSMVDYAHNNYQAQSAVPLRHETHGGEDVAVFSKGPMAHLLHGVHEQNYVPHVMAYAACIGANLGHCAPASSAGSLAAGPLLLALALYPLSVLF

[14] = HEp-2 cell cytotoxicity, dose response, cytotoxicity control for RSV inhibitor project, HTS (AID 2410); format: functional; details: human respiratory syncytial virus

Sequence of Intestinal-type alkaline phosphatase (Mus musculus, UniProt P24822) (P24822 whole entry): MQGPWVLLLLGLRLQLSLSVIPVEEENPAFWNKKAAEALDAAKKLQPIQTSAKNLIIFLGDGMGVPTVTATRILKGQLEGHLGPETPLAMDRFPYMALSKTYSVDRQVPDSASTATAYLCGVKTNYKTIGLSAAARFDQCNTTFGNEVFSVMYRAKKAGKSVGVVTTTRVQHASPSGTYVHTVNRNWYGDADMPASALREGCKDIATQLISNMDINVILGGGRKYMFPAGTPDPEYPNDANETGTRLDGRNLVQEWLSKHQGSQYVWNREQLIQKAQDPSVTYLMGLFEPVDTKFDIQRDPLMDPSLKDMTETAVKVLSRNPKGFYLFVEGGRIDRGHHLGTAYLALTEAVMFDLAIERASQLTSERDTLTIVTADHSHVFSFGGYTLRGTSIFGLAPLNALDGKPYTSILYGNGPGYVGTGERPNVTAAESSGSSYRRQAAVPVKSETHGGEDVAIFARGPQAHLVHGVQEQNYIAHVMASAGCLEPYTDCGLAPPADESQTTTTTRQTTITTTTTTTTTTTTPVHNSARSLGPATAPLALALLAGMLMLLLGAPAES
Sequence of Intestinal-type alkaline phosphatase (Homo sapiens, UniProt P09923) (P09923 whole entry): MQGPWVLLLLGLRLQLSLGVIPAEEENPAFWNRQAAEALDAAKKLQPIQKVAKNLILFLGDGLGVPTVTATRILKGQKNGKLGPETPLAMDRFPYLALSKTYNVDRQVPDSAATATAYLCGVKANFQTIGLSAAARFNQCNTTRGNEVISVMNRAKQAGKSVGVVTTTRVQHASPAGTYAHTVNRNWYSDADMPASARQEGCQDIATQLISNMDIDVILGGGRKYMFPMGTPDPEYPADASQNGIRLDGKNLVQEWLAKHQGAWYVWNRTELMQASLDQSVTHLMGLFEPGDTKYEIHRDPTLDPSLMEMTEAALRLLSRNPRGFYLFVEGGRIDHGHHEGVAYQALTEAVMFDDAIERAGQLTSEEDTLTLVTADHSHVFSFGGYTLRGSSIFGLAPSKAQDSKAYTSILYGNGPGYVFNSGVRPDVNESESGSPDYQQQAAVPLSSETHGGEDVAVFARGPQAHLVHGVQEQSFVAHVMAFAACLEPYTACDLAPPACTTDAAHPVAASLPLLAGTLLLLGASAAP

SMILES: CCN(CC)CCNC(=O)C(=O)NCC1OCCN1S(=O)(=O)c1cccs1 (stereo not given)
- AC50 [1]: 29.3 µM (active)

SMILES: COCCN1CCn2c(nc3cc(Nc4nnc(C)c5ccccc45)ccc32)C1
- AC50 [1]: 11.9 µM (active)

SMILES: CC(=O)OC1C(O)C(C)OC(OC2C(OC(=O)C3CCC4C(C3)OC3(CC(OC(=O)/C=C/c5ccccc5)C(C)CO3)C43CO3)OC(C)C(O)C2OC(C)=O)C1O (stereo not given)
- GI50 (P388): 0.0895 µM (active)
- IC50 [2]: 49.8 µM (inactive)
- GI50 (P388/ADR): > 1.75 µM (inactive)
- GI50 (SN12K1): 0.0172 µM (active)

SMILES: COC(=O)c1ccc(NC(S)=NC2c3ccccc3CC2O)cc1 (stereo not given)
- AC50 [3]: 26.6 µM (active)

SMILES: COc1ccc(NC(=O)c2cnc(C)cn2)cc1-n1cnnn1
- AC50 [4]: 0.733 µM (active)

SMILES: NCCCC[C@H]1CN=C(S)N1CCCCC1CCCCC1
- AC50 [1]: 10.9 µM (active)

SMILES: C#CCOCCOCCOCCNc1nc(N2CCN(C(=O)CCCCCCCCCCNC(=O)[C@@H](CCSC)n3cc(CCO)nn3)CC2)nc(N2CCN(C(=O)CCCCCCCCCCNC(=O)[C@H]([C@@H](C)CC)n3cc(CCCCN=C(N)N)nn3)CC2)n1
- EC50 (Insulin-degrading enzyme [5]): 2.36 µM (active)
- IC50 [6]: 1.66 µM (active)
- IC50 [7]: 5.82 µM (active)
- EC50 (Insulin-degrading enzyme [8]): > 2.03 µM (active)
- EC50 (HEK293 [9]): > 56 µM (inactive)
- IC50 (Bcl-2-related protein A1): 5.51 µM (active)
- IC50 (HEK293 [10]): 4.44 µM (active)
- IC50 [11]: > 100 µM (inactive)
- IC50 [12]: 3.81 µM (active)
- IC50 [13]: 58.7 µM (active)
- CC50 [14]: 16 µM (active)
